Key:
[1] = system: rat paw swelling induced by carrageenan; experiment: Rat paw swelling induced by carrageenan (inflammation model); format: in vivo, Wistar rats; conditions: 14 mg/kg intragastric
Experimental: In vivo test: observation of the effect of compound 1 on rat paw swelling induced by carrageenan (inflammation model evaluation)
50 rats were randomized into 5 groups, with 10 animals in each group.
The total volume prepared for each dose group was determined based on the actual weight of the animals. A corresponding volume of purified water was taken, and was added with a sample of the test compounds or of the positive control, to allow homogenous dispersion. Sodium carboxymethyl cellulose was subsequently added, to make a homogenous suspension without obvious agglomerates.
Methods: 50 Wistar rats ([…], 167-199 g) were used in the study, with 25 males and 25 females. They were randomized into 5 groups, i.e. model group, positive control group, compound 1: low, middle and high dose groups. […] 1 hour after intragastric administration, 0.1 ml 1% carrageenan was intradermally injected in the right hind plantar paw to induce inflammation. After induction of inflammation, paw plantar volume and paw thickness were measured every another hour, consecutively for six times. Paw swelling rate (%) and inhibition rate (%) were calculated.
Assay methods: volume of the rat right paw was determined using UGO Basile plethysmograph, and the liquid level was kept constant for in the same animal in each measurement; thickness of the right hind paw were measured at the depiction line in the central paw with a digital vernier caliper.
The group mean and standard deviation of paw swelling rate in each group of animals were calculated, and then the following statistical analysis was performed. The test level was 0.05, and both statistical significance and biological significance were considered in the result analysis.
Levene's Test was used for homogeneity of variance test. Single-factor analysis of variance (ANOVA) was used for statistical analysis, if no statistical significance (P>0.05) was found. Dunnett's test (parametric method) analysis was used for multiple comparison analysis, if ANOVA found statistical significance (P≦0.05).
If there was heterogeneity of variance (P≦0.05), then the Kruskal-Wallis test was used. If the test result of Kruskal-Wallis test was statistically significant (P<0.05), then Dunnett's test (non-parametric method) was used for multiple comparison analysis.

[2] = target: T1, cyclooxygenase-1 (COX-1 enzyme) (Homo sapiens, UniProt P23219); experiment: Human whole blood in vitro activity assay, COX-1 (TXB2 by EIA); format: cell-based; conditions: read-out: IC50 (μg/mL) COX-1 (converted)
T1 construct: from tissue; host or cells: human whole blood without heparin (platelets) from healthy volunteers
T1 sequence (P23219 24-599): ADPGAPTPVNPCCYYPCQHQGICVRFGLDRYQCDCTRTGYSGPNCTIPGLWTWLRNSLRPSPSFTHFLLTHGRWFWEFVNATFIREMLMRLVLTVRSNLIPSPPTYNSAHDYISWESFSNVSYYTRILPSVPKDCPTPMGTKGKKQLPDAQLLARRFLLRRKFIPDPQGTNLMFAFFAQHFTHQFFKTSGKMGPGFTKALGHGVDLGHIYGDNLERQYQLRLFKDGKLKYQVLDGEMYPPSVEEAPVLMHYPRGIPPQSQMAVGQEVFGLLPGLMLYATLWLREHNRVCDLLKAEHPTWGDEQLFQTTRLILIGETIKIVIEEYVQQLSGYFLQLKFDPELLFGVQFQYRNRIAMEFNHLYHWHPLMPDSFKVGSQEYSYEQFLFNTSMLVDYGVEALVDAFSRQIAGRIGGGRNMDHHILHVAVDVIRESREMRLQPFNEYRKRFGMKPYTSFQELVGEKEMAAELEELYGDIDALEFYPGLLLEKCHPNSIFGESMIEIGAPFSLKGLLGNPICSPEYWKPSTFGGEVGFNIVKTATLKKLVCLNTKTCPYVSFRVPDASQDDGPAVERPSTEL
Experimental: (§1) Human whole blood in vitro activity study: inhibition of activity of cyclooxygenase-1 (COX-1 enzyme) and cyclooxygenase-2 (COX-2 enzyme) in human blood. […] The blood samples were divided into two parts: one was used for detecting COX-1 enzyme activity, and the other was used for detecting COX-2 enzyme activity. The compounds were dissolved in DMSO, and were prepared in advance into 2 μL solutions in respective concentrations of 500, 50, 5, 0.5, 0.05, 0.005, 0.0005 μg/mL. 200 μL whole blood without heparin was added in the tubes containing the compounds, and then incubated at 37° C. for 1 hour. The activity of COX-1 enzyme was detected by determining the amount of thromboxane B2 (TXB2) synthesized by platelet using an EIA kit. Samples tested without the compounds were negative controls. For COX-2, 200 μL whole blood with heparin was added in the tubes containing the compounds and in the tubes containing 10 μg/mL LPS. LPS control and blank control with solvent only were used respectively for determining the maximum value and the background value of the PGE2 produced therefrom. The samples were incubated at 37° C. for 24 hours, and then centrifuged to collect serum/plasma, which was stored at −80° C. for detection by an EIA kit. The EIA kit of Cayman Company was used, the amounts of TXB2 and PGE2 were determined in accordance to the manufacturer's instructions, and the activities of COX-1 and COX-2 were tested respectively.

[3] = target: T2, cyclooxygenase-2 (COX-2 enzyme) (Homo sapiens, UniProt P35354); experiment: Human whole blood in vitro activity assay, COX-2 (LPS-induced PGE2 by EIA); format: cell-based; conditions: for IC50: LPS, PGE2, read-out: IC50 (μg/mL) COX-2 (converted)
T2 construct: from tissue; host or cells: heparinised human whole blood from healthy volunteers, stimulated with LPS
T2 sequence (P35354 18-604): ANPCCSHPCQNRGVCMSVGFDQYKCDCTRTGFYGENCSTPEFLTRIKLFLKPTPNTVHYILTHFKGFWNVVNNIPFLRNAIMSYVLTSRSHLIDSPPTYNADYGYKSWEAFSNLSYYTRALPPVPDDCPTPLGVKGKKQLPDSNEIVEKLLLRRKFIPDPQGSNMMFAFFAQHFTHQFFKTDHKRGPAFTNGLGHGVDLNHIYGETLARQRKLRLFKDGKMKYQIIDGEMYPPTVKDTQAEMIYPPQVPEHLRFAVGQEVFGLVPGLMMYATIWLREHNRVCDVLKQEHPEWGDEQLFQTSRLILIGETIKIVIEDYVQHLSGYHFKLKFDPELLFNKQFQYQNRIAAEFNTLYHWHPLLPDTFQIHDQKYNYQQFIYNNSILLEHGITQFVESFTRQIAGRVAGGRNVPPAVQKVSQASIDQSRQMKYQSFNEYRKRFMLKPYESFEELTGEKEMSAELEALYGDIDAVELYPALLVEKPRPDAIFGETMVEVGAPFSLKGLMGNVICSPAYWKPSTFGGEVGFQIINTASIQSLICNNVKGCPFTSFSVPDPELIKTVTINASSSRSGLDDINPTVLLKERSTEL
Experimental: as §1

[4] = system: mice tail suspension immobility time; experiment: Tail suspension test in mice (anti-depression model); format: in vivo, Male Kunming mice; conditions: 20 mg/kg intragastric, in s (unit assumed)
Experimental: In Vivo Test: Tail Suspension Test in Mice (Evaluation on an Anti-Depression Model)
Male Kunming mice, approximately 20 g, were randomized into six groups, i.e. normal group, positive drug group (fluoxetine 20 mg/kg), compound 1: group A 5 mg/kg, group B 10 mg/kg, group C 20 mg/kg, and group D 40 mg/kg.
Single Dose Test: Mice were normally fed for 1 day and allowed to adapt to the environment. Then the mice were fasted (except water) for 16 hours, and were intragastrically administrated with a single dose of the compound. The normal group was intragastrically administrated with an equivalent amount of distilled water. 40 min after the administration, the mice were inverted and fixed to a tail suspension device, and the distance between the head and the desktop was about 30 cm. Immobility time was recorded with an analysis record system, for the latter 4 min within the 6 min recording period, and was used for statistical analysis.
(§2) Study with Three-Day Consecutive Dosing: Mice were normally fed for 1 day and allowed to adapt to the environment. Then the mice were intragastrically administrated with the test drug for 3 consecutive days (once per day), and the normal group was intragastrically administrated with an equivalent amount of distilled water. The mice were fasted (except water) for 16 hours before the last dosing. 40 min after the last dosing, the mice were inverted and fixed to the tail suspension device, and the distance between the head and the desktop was about 30 cm. Immobility time was recorded with an analysis record system, for the latter 4 min within the 6 min recording period, and was used for statistical analysis.
as §2, with “with Seven-Day” for “with Three-Day”, “intragastrically dosed” for “intragastrically administrated with the test drug”, “for 7” for “for 3”, “days (once/day),” for “days (once per day),”, “last administration.” for “last dosing.”, “last administration,” for “last dosing,”

[5] = system: mice forced swimming immobility time; experiment: Forced swimming test in mice (anti-depression model); format: in vivo, Male Kunming mice; conditions: 20 mg/kg intragastric, in s (unit assumed)
Experimental: In Vivo Study: The Forced Swimming Test in Mice (Evaluation on Anti-Depression Model)
Male Kunming mice, approximately 20 g, were randomized into six groups, i.e. normal group, positive drug group (fluoxetine 20 mg/kg), group A (5 mg/kg Compound 1), group B (10 mg/kg Compound 1), group C (20 mg/kg Compound 1), and group D (40 mg/kg Compound 1).
Single Dose Test: Mice were normally fed for 1 day and allowed to adapt to the environment. Then the mice were fasted (except water) for 16 hours, and were intragastrically administrated with a single dose of the test drug, and the normal group was intragastrically administrated with an equivalent amount of distilled water. 40 min after administration, the mice were placed in forced swimming test device (swimming environment: pool diameter 12.5 cm cylinder, water temperature 25° C. and water depth 10 cm). Mice swam for six minutes, and the immobility time (i.e., the time during which the limbs were immobile, or only the feet were thrashing or paddling) was recorded with an animal behavioral record system, for the latter 4 min within the 6 min recording period, and was used for statistical analysis.
(§3) Study with Three-Day Consecutive Dosing: Mice were normally fed for 1 day and allowed to adapt to the environment. Then the mice were intragastrically administrated with the test drug consecutively for three days (once per day). The normal group was intragastrically administrated equivalent amount of distilled water. Mice were fasted (except water) for 16 hours before the last dosing. 40 min after the last dosing, the mice were placed in forced swimming test device (swimming environment: pool diameter 12.5 cm cylinder, water temperature 25° C. and water depth 10 cm). Mice swam for six minutes, and the immobility time (i.e., the time during which the limbs were immobile, or only the feet were thrashing or paddling) was recorded with an animal behavioral record system, for the latter 4 min within the 6 min recording period, and was used for statistical analysis.
as §3, with “Seven-Day” for “Three-Day”, “seven” for “three”

[6] = 3 days consecutive administration
[7] = 7 days consecutive administration
[8] = single dose, 40 min after administration

For Cc1ccc(-c2cc(C(F)(F)F)nn2-c2ccc(S(N)(=O)=O)cc2)cc1 [Celecoxib, reference compound], the “inhibition rate of plantar paw thickness swelling” value ([1]; 1 h after inflammation) was 30.02%, the “inhibition rate of plantar paw volume swelling” value ([1]; 1 h after inflammation) was 0.26% and the “plantar paw thickness swelling rate” value ([1]; 1 h after inflammation) was 7.69 ± 3.31%. The “plantar paw volume swelling rate” value ([1]; 1 h after inflammation) was 10.87 ± 6.32%, the “inhibition rate of plantar paw thickness swelling” value ([1]; 2 h after inflammation) was 60.28% and the “inhibition rate of plantar paw volume swelling” value ([1]; 2 h after inflammation) was 38.81%. For the same molecule, the “plantar paw thickness swelling rate” value ([1]; 2 h after inflammation) was 6.30 ± 2.55 %, the “plantar paw volume swelling rate” value ([1]; 2 h after inflammation) was 10.71 ± 6.01 % and the “inhibition rate of plantar paw thickness swelling” value ([1]; 3 h after inflammation) was 73.09%. For the same molecule, the “inhibition rate of plantar paw volume swelling” value ([1]; 3 h after inflammation) was 66.24%, the “plantar paw thickness swelling rate” value ([1]; 3 h after inflammation) was 4.64 ± 1.99 % and the “plantar paw volume swelling rate” value ([1]; 3 h after inflammation) was 7.16 ± 5.15 %. For the same molecule, the “inhibition rate of plantar paw thickness swelling” value ([1]; 4 h after inflammation) was 80.52%, the “inhibition rate of plantar paw volume swelling” value ([1]; 4 h after inflammation) was 64.29% and the “plantar paw thickness swelling rate” value ([1]; 4 h after inflammation) was 3.71 ± 2.58 %. The “plantar paw volume swelling rate” value ([1]; 4 h after inflammation) was 9.68 ± 6.13 %, the “inhibition rate of plantar paw thickness swelling” value ([1]; 5 h after inflammation) was 82.31% and the “inhibition rate of plantar paw volume swelling” value ([1]; 5 h after inflammation) was 56.44%. The “plantar paw thickness swelling rate” value ([1]; 5 h after inflammation) was 3.34 ± 2.56 %, the “plantar paw volume swelling rate” value ([1]; 5 h after inflammation) was 12.22 ± 6.90 % and the “inhibition rate of plantar paw thickness swelling” value ([1]; 6 h after inflammation) was 82.40%. For the same molecule, the “inhibition rate of plantar paw volume swelling” value ([1]; 6 h after inflammation) was 57.00%, the “plantar paw thickness swelling rate” value ([1]; 6 h after inflammation) was 2.72 ± 2.51 % and the “plantar paw volume swelling rate” value ([1]; 6 h after inflammation) was 11.91 ± 5.41 %.
In the case of CS(=O)(=O)c1ccc(-n2cncc2-c2ccccc2)nc1 [Compound 1E, 5-(methylsulfonyl)-2-(5-phenyl-1H-imidazol-1-yl)pyridine], the IC50 [2] is reported as 86.5 µM, the IC50COX-1/IC50COX-2 [3] is reported as 11.6 and the IC50 [3] is reported as 7.45 µM.
CS(=O)(=O)c1ccc(-n2cnc(Cl)c2-c2ccc(Cl)cc2Cl)nc1 [Compound 4, 2-(4-chloro-5-(2,4-dichlorophenyl)-1H-imidazol-1-yl)-5-(methylsulfonyl)pyridine] showed an IC50 [2] of 45.6 µM, an IC50COX-1/IC50COX-2 [3] of 26.2 and an IC50 [3] of 1.74 µM.
Work on COc1ccc(-c2c(Cl)ncn2-c2ccc(S(C)(=O)=O)cn2)cc1 [Compound 5, 2-(4-chloro-5-(4-methoxyphenyl)-1H-imidazol-1-yl)-5-(methylsulfonyl)pyridine] yielded an IC50 [2] of 0.632 µM, an IC50COX-1/IC50COX-2 [3] of 4.6 and an IC50 [3] of 0.137 µM.
COc1ccc(-c2c(Cl)ncn2-c2ccc(S(C)(=O)=O)cn2)cc1F [Compound 6, 2-(4-chloro-5-(3-fluoro-4-methoxyphenyl)-1H-imidazol-1-yl)-5-(methylsulfonyl)pyridine] gave an IC50 [2] of 8.8 µM, an IC50COX-1/IC50COX-2 [3] of 25.8 and an IC50 [3] of 0.34 µM.
With CNCCC(Oc1ccc(C(F)(F)F)cc1)c1ccccc1 (stereo not drawn) [fluoxetine, reference compound] the “tail suspension Immobility time” value [4, 6] was 33.95 ± 10.50, the “tail suspension Immobility time” value [4, 7] was 33.76 ± 10.47 and the “tail suspension Immobility time” value [4, 8] was 43.52 ± 20.21. For the same molecule, the “forced swimming Immobility time” value [5, 6] was 82.42 ± 32.07, the “forced swimming Immobility time” value [5, 7] was 90.94 ± 31.73 and the “forced swimming Immobility time” value [5, 8] was 105.04 ± 37.98.
